Measured values taken from US8507562B2, “Synthesis of (1)-beta-elemene, (-)-beta-elemenal, (-)-beta-elemenol, (-)-beta-elemene fluoride and their analogues, intermediates, and composition and uses thereof” (HYWE Pharmaceuticals, Inc., priority 2004, dated 2013).
Values after ≈ are worked out from the molar mass of the structure shown. Where two headings read alike, the source gives them in different places.

Experiments:
[1] = test system: U-87 brain tumor; assay: MTT survival assay; type: cell-based, human; settings: Homo sapiens, read-out: IC50
Protocol: (§3) The MTT assay is a commonly used method in evaluation of cell survival, based on the ability of viable cells to convert MTT, a soluble tetrazolium salt [3-(4,5-dimethylthuazole-2-yl)-2,5 diphenyl tetrazolium bromide], into an insoluble formazan precipitate, which is quantitated by spectrophotometry following solubilization in dimethyl sulfoxide (DMSO).
(§4) The cells were then solubilized in 125 μl of DMSO and absorbance readings were taken using a 96-well Opsys MRI Microplate Reader (ThermoLabsystems; Chantilly, Va.). The amount of MTT dye reduction was calculated based on the difference between absorbance at 570 nm and at 630 nm. Cell viability in treated cells was expressed as the amount of dye reduction relative to that of untreated control cells. The wells which contained only medium and 10 μl of MTT were used as blanks for the plate reader. Three sets of experiments were performed in 8-12 wells for each treatment.
(§5) The cells were then solubilized in 125 μl of DMSO and absorbance readings were taken using a 96-well Opsys MRI Microplate Reader (ThermoLabsystems; Chantilly, Va.). The amount of MTT dye reduction was calculated based on the difference between absorbance at 570 nm and at 630 nm. Cell viability in treated cells was expressed as the amount of dye reduction relative to that of untreated control cells. The wells which contained only medium and 10 μI of MTT were used as blanks for the plate reader. Three sets of experiments were performed in 8-12 wells for each treatment.

[2] = test system: STTG1 brain tumor; assay: MTT survival assay; type: cell-based, human; settings: Homo sapiens, read-out: IC50
Protocol: as §3, §4

[3] = test system: A-172 brain tumor; assay: MTT survival assay; type: cell-based, human; settings: Homo sapiens, A 172, read-out: IC50
Protocol: as §3, §4, §5

[4] = test system: H-460 lung cancer; assay: MTT survival assay; type: cell-based, human; settings: 2 × 10^4 cells/ml
Protocol: as §3, §4
(§6) In brief, carcinoma cells treated with test articles alone, in 96-well tissue culture dishes were incubated with MTT (2 μg/ml) for 4 h. The cells were then solubilized in 125 μl of DMSO and absorbance readings were taken using a 96-well Opsys MRI Microplate Reader (ThermoLabsystems; Chantilly, Va.). The amount of MTT dye reduction was calculated based on the difference between absorbance at 570 nm and at 630 nm. Cell viability in treated cells was expressed as the amount of dye reduction relative to that of untreated control cells. The wells that contained only medium and 10 μl of MTT were used as blanks for the plate reader.
as §5

[5] = test system: A549 lung cancer; assay: MTT survival assay; settings: 2 × 10^4 cells/ml
Protocol: as §3, §6

[6] = test system: human liver cancer QGY; settings: 30 mg/kg/time ip × 7 qd
[7] = test system: human prostate cancer PC-3M; settings: 30 mg/kg/time ip × 7 qd
[8] = test system: human lung cancer A549; settings: 30 mg/kg/time ip × 7 qd
[9] = test system: human breast cancer ao10/17; settings: 30 mg/kg/time ip × 7 qd
[10] = test system: human breast cancer Bcap-37; settings: 30 mg/kg/time ip × 7 qd
[11] = test system: human colon cancer HCT-8; settings: 30 mg/kg/time ip × 7 qd
[12] = test system: human glioma cells; assay: MTT assay, elemene analogs; type: cell-based; settings: for IC50: Homo sapiens, Glioma cell
Protocol: as §3, §4

[13] = test system: Colon Cancer Cells HCT-116; assay: MTS cell viability assay; type: cell-based, human; settings: combinations with Elemene 160 μg/ml, n = 8
[14] = test system: Colon Cancer Cells Colo 205; assay: MTS cell viability assay; settings: Colo 205, drug alone
Protocol: (§7) Cells were maintained at 37° C. in a humidified atmosphere including 5% CO2. […] Drugs were dissolved in 100% DMSO and then diluted in medium for experiments.

[15] = test system: Colon Cancer Cells HCT-15; assay: MTS cell viability assay; settings: combinations with Elemene 160 μg/ml, n = 8
Protocol: as §7

[16] = test system: human glioma SHG44 (xenograph in brain); assay: Tumor xenographed in mice brain, survival; type: in vivo, nude mice; settings: 5 mg/kg/time ip × 7 qd
Protocol: (§1) Mice model with tumor xenographed in mice brain: Glioma cell line G-422 or SHG44 (log phase) were diluted to 2×10^7/ml in cell culture hood (no bacteria environment). Each mouse was injected with 0.05 ml of tumor cell in its brain. […] The survival time of these mice was recorded in the next 30 days. The life extension was calculated using the following formula: Life Extension Rate=[( […])/Average survival days of control group[×100 Results: […]

[17] = test system: human glioma G-422 (xenograph under skin); assay: Xenograph under skin, injection directly into tumor; type: in vivo, mice; settings: 5 mg ip × 10 qd
Source text: (§2) The mice were killed after 3 weeks.

[18] = test system: human glioma SHG-44G (xenograph under skin); assay: as above; type: in vivo, nude mice; settings: listed as printed Pos. Cont. VM-26: 60 mg/kg it × 10 qd
Source text: as §2
Nude mice grew on the cengliu rack.

[19] = test system: human glioma G422 (xenograph in brain); assay: Tumor xenographed in mice brain, survival; type: in vivo; settings: 5 mg/kg/time ip × 7 qd
Protocol: as §1

C=C[C@]1(C)CC[C@@H]([C@@](C)(O)CO)C[C@H]1C(=C)C (single isomer, unassigned) [Lr-1]
IC50 ([1]; U87, 24 h): 98 µg/mL (≈ 411 µM)
IC50 ([1]; U87, 48 h): 94 µg/mL (≈ 394 µM)
IC50 ([1]; U87, 72 h): 89 µg/mL (≈ 373 µM)
IC50 ([2]; STTG1, 24 h): 108 µg/mL (≈ 453 µM)
IC50 ([2]; STTG1, 48 h): 98 µg/mL (≈ 411 µM)
IC50 ([2]; STTG1, 72 h): 94 µg/mL (≈ 394 µM)
IC50 ([3]; A172, 24 h): 106 µg/mL (≈ 445 µM)
IC50 ([3]; A172, 48 h): 94 µg/mL (≈ 394 µM)
IC50 ([3]; A172, 72 h): 90 µg/mL (≈ 378 µM)

C=C[C@]1(C)CC[C@@H](C(=C)C=O)C[C@H]1C(=C)C [(−)-beta-elemenal, (−)-Beta-elemenal]
IC50 ([4]; H460, 24 h): 27.6 µg/mL (≈ 126 µM)
IC50 ([4]; H460, 48 h): 25.5 µg/mL (≈ 117 µM)
IC50 ([4]; H460, 72 h): 11.0 µg/mL (≈ 50.4 µM)
IC50 ([5]; A549, 24 h): 45.6 µg/mL (≈ 209 µM)
IC50 ([5]; A549, 48 h): 35.0 µg/mL (≈ 160 µM)
IC50 ([5]; A549, 72 h): 35.0 µg/mL (≈ 160 µM)

O=P1(N(CCCl)CCCl)NCCCO1 (centres unmarked) [CTX, Cyclophosphamide, reference compound]
Inhibition Rate % [6]: 89.37%
Tumor Weight (g) X ± SD [6]: 0.22 ± 0.12 g
Inhibition Rate % [7]: 87.27%
Tumor Weight (g) X ± SD [7]: 0.205 ± 0.1 g
Inhibition Rate % [8]: 85.13%
Tumor Weight (g) X ± SD [8]: 0.29 ± 0.07 g
Inhibition Rate % [9]: 87.50%
Tumor Weight (g) X ± SD [9]: 0.15 ± 0.08 g
Inhibition Rate % [10]: 84.23%
Tumor Weight (g) X ± SD [10]: 0.205 ± 0.12 g
Inhibition Rate % [11]: 88.11%
Tumor Weight (g) X ± SD [11]: 0.170 ± 0.08 g

C=C[C@]1(C)CC[C@@H]([C@](C)(O)CO)C[C@H]1C(=C)C [Lr-2, (S)-2-((1R,3S,4S)-3-isopropenyl-4-methyl-4-vinyl-cyclohexyl)-propane-1,2-diol]
IC50 ([12]; 48 hr): 89.6 µg/mL (≈ 376 µM)
IC50 ([12]; 72 hr): 90.9 µg/mL (≈ 381 µM)
IC50 ([1]; U87, 24 h): 90 µg/mL (≈ 378 µM)
IC50 ([1]; U87, 48 h): 94 µg/mL (≈ 394 µM)
IC50 ([1]; U87, 72 h): 87 µg/mL (≈ 365 µM)
IC50 ([2]; STTG1, 24 h): 112 µg/mL (≈ 470 µM)
IC50 ([2]; STTG1, 48 h): 98 µg/mL (≈ 411 µM)
IC50 ([2]; STTG1, 72 h): 97 µg/mL (≈ 407 µM)
IC50 ([3]; A172, 24 h): 122 µg/mL (≈ 512 µM)
IC50 ([3]; A172, 48 h): 96 µg/mL (≈ 403 µM)
IC50 ([3]; A172, 72 h): 65 µg/mL (≈ 273 µM)

C=C[C@]1(C)CC[C@@H](C(C)=O)C[C@H]1C(=C)C [Lr-3, 1-((1R,3S,4S)-3-Isopropenyl-4-methyl-4-vinyl-cyclohexyl)-ethanone]
IC50 ([12]; 24 hr): > 200 µg/mL
IC50 ([12]; 48 hr): > 200 µg/mL
IC50 ([12]; 72 hr): > 200 µg/mL
IC50 ([1]; U87, 24 h): 118 µg/mL (≈ 572 µM)
IC50 ([1]; U87, 48 h): > 120 µg/mL
IC50 ([1]; U87, 72 h): 120 µg/mL (≈ 582 µM)
IC50 ([2]; STTG1, 24 h): 108 µg/mL (≈ 523 µM)
IC50 ([2]; STTG1, 48 h): > 120 µg/mL
IC50 ([2]; STTG1, 72 h): 110 µg/mL (≈ 533 µM)
IC50 ([3]; A172, 24 h): > 140 µg/mL
IC50 ([3]; A172, 48 h): 134 µg/mL (≈ 649 µM)
IC50 ([3]; A172, 72 h): 106 µg/mL (≈ 514 µM)

C=C(C)C1=C(C)C(=O)C[C@@H](C(=C)C)C1 [Lr-6, (S)-3,5-Diisopropenyl-2-methyl-cyclohex-2-enone]
IC50 ([12]; 24 hr): > 200 µg/mL
IC50 ([12]; 48 hr): > 200 µg/mL
IC50 ([12]; 72 hr): > 200 µg/mL

C=C(C)[C@H]1CC=C(C)C(=O)C1 [Lr-9, (S)-5-Isopropenyl-2-methyl-cyclohex-2-enone]
IC50 ([12]; 24 hr): > 200 µg/mL
IC50 ([12]; 48 hr): > 200 µg/mL
IC50 ([12]; 72 hr): > 200 µg/mL

C=C(C)[C@@H]1CC=C(C)C(=O)C1 [Lr-10, (R)-5-Isopropenyl-2-methyl-cyclohex-2-enone]
IC50 ([12]; 24 hr): > 200 µg/mL
IC50 ([12]; 48 hr): > 200 µg/mL
IC50 ([12]; 72 hr): > 200 µg/mL

O=C1[O][Pt]2([NH][C@@H]3CCCC[C@H]3[NH]2)[O]C1=O [Oxaliplatin]
IC50 ([13]; HCT-116, 4 hr/24 hr × 2): 106 ± 15.7 µg/mL
IC50 ([13]; HCT-116, 4 hr/24 hr × 3): 65.7 ± 7.02 µg/mL
IC50 ([13]; HCT-116, 4 hr/24 hr): 148 ± 13.7 µg/mL
IC50 ([13]; HCT-116, 4 hr): 373 ± 69.6 µg/mL
IC50 ([13]; HCT-116, 8 hr): 92.2 ± 15.7 µg/mL
IC50 ([13]; HCT-116, 12 hr): 74.4 ± 6.28 µg/mL
IC50 ([13]; HCT-116, 24 hr): 68.9 ± 7.92 µg/mL
IC50 ([13]; HCT-116, 48 hr): 64.5 ± 7.89 µg/mL
IC50 ([13]; HCT-116, 72 hr): 57.2 ± 10.5 µg/mL
IC50 ([14]; Time 4 hr, n = 8): 166 ± 7.51 µg/mL
IC50 ([14]; Time 4 hr/24 hr × 2, n = 8): 21.8 ± 1.06 µg/mL
IC50 ([14]; Time 4 hr/24 hr × 3, n = 8): 9.90 ± 1.01 µg/mL
IC50 ([14]; Time 4 hr/24 hr, n = 8): 29.5 ± 7.05 µg/mL
IC50 ([14]; Time 8 hr, n = 8): 124 ± 13.1 µg/mL
IC50 ([14]; Time 12 hr, n = 8): 69.7 ± 12.7 µg/mL
IC50 ([14]; Time 24 hr, n = 8): 25.2 ± 7.85 µg/mL
IC50 ([14]; Time 48 hr, n = 8): 20.4 ± 2.14 µg/mL
IC50 ([14]; Time 72 hr, n = 8): 13.4 ± 2.42 µg/mL
IC50 ([15]; HCT-15, 4 hr/24 hr × 2): 16.4 ± 4.64 µg/mL
IC50 ([15]; HCT-15, 4 hr/24 hr × 3): 11.8 ± 3.69 µg/mL
IC50 ([15]; HCT-15, 4 hr/24 hr): 22.0 ± 7.66 µg/mL
IC50 ([15]; HCT-15, 4 hr): 28.4 ± 6.80 µg/mL
IC50 ([15]; HCT-15, 8 hr): 25.7 ± 5.61 µg/mL
IC50 ([15]; HCT-15, 12 hr): 19.3 ± 3.21 µg/mL
IC50 ([15]; HCT-15, 48 hr): 14.5 ± 2.66 µg/mL
IC50 ([15]; HCT-15, 72 hr): 14.9 ± 3.33 µg/mL

COc1cc([C@@H]2c3cc4c(cc3[C@@H](O[C@@H]3O[C@@H]5CO[C@@H](c6cccs6)O[C@H]5[C@H](O)[C@H]3O)[C@H]3COC(=O)[C@H]23)OCO4)cc(OC)c1O [VM26, reference compound]
Average Life Span (day) X± SD [16]: 30.8 ± 3.7 days
Survival time as % of control (T/C) ([16]; compared to control): 196.75%
Inhibition Rate % [17]: 85.78%
Tumor Weight X ± SD ([17]; in g (unit assumed)): 0.32 ± 0.12
Inhibition Rate % [18]: 61.08%
Tumor Weight X ± SD ([18]; in g (unit assumed)): 0.72 ± 0.12
Average Life Span (day) X± SD [19]: 21.5 ± 3.4 days

(1R,5S)-1-Isobutyl-3,5-diisopropenyl-2-methyl-cyclohex-2-enol, and (1S,5S)-1-Isobutyl-3,5-diisopropenyl-2-methyl-cyclohex-2-enol [Lr-8]
IC50 in human glioma cells ([12]; 24 hr): 106.2 µg/mL
IC50 in human glioma cells ([12]; 48 hr): 105.2 µg/mL
IC50 in human glioma cells ([12]; 72 hr): 103.3 µg/mL

(1S,5S)-3,5-Diisopropenyl-2-methyl-cyclohex-2-enol, and (1R,5S)-3,5-Diisopropenyl-2-methyl-cyclohex-2-enol [Lr-7]
IC50 in human glioma cells ([12]; 24 hr): >200 µg/mL
IC50 in human glioma cells ([12]; 48 hr): >200 µg/mL
IC50 in human glioma cells ([12]; 72 hr): >200 µg/mL

(S)-1,5-Diisopropenyl-2-methyl-cyclohex-2-enol, and (R)-1,5-Diisopropenyl-2-methyl-cyclohex-2-enol [Lr-4]
IC50 in human glioma cells ([12]; 24 hr): >200 µg/mL
IC50 in human glioma cells ([12]; 48 hr): >200 µg/mL
IC50 in human glioma cells ([12]; 72 hr): >200 µg/mL

(S)-5-Isopropenyl-1,2-dimethyl-cyclohex-2-enol, and (R)-5-Isopropenyl-1,2-dimethyl-cyclohex-2-enol [Lr-5]
IC50 in human glioma cells ([12]; 24 hr): >200 µg/mL
IC50 in human glioma cells ([12]; 48 hr): >200 µg/mL
IC50 in human glioma cells ([12]; 72 hr): >200 µg/mL

(−)-Beta-elemene Fluoride
IC50 ([4]; H460, 24 h): 71.3 µg/mL
IC50 ([4]; H460, 48 h): 62.5 µg/mL
IC50 ([4]; H460, 72 h): 68.6 µg/mL
IC50 ([5]; A549, 24 h): 83.0 µg/mL
IC50 ([5]; A549, 48 h): 64.5 µg/mL
IC50 ([5]; A549, 72 h): 71.4 µg/mL
